Patent US20060079510A1, “Use of PARP-1 inhibitors for protecting tumorcidal lymphocytes from apoptosis” (priority 2004, published 2006)
“Also recorded” adds a separate entry of the source.

Experiments:
[1] = test system: neoplastic disease and/or viral infection; experiment: Treatment of subjects with neoplastic disease and/or viral infection (Example 4); format: in vivo, human; conditions: CEP-6800 250 mg/day with IL-2, interferon-α and histamine, repeated every 4-6 weeks
Experimental: Subjects in need of enhanced cytotoxic lymphocyte activity, because of a neoplastic disease, and/or a viral infection such as hepatitis B (HBV), hepatitis C(HCV), human immunodeficiency virus (HIV), human papilloma virus (HPV) or herpes simplex virus (HSV) type 1 or 2, or other viral infections, are administered 250 mg/day of CEP-6800, a PARP-1 inhibitor. Additionally, subjects are administered human recombinant IL-2 (Proleukin®, Eurocetus) by subcutaneous injection or by continuous infusion of 27 μg/kg/day on days 1-5 and 8-12. The subjects also receive a daily dose of 6×10^6 U interferon-α administered by a suitable route, such as subcutaneous injection. This treatment also includes administering 0.2 to 2.0 mg or 3-10 μg/kg of histamine injected 1, 2, or more times per day in conjunction with the administration of IL-2 and/or interferon-α.
The above procedure is repeated every 4-6 weeks until an objective regression of the tumor is observed, or until improvement in the viral infection occurs. The therapy can be continued even after a first, second, or subsequent complete remission has been observed. In patients with complete responses, the therapy can be given with longer intervals between cycles. […]

AML = experiment: Treatment of subjects with AML in remission (Example 1); format: in vivo, human; conditions: 3-aminobenzamide s.c. (50 mg/day) with histamine dihydrochloride, IL-2, cytarabine and thioguanine, 21-day cycles
Experimental: Subjects with AML in a first, second, subsequent or complete remission are treated in 21-day courses with IL-2 (35-50 μg (equivalent to 6.3-9×10^5 IU) subcutaneously (s.c.). twice daily), repeated with three to six-week intermissions and continued until relapse. In cycle #1, patients receive three weeks of low dose chemotherapy consisting of 16 mg/m^2/day cytarabine, and 40 mg/day thioguanine. Concomitantly, patients are injected subcutaneously with an effective amount of a pharmaceutically acceptable form of a PARP-1 inhibitor, 3-aminobenzamide. Additionally, the patients are administered an effective amount of a pharmaceutically acceptable form of histamine dihydrochloride to boost circulating histamine to a beneficial level twice daily (above 0.2 μmole/L). Histamine levels can be continually boosted to beneficial levels by administering histamine dihydrochloride by injection at 0.2 to 2.0 mg or 3-10 μg/kg twice daily in a pharmaceutically acceptable form of a ROM inhibitory compound during the IL-2 treatment. Thereafter, the subjects are allowed to rest for three to six weeks. After the rest period at the end of the first cycle (cycle #1), the second cycle (cycle #2) is initiated. […]

[2] = test system: peripheral blood lymphocytes; experiment: Oxidant-induced cell death in lymphocytes incubated with mononuclear phagocytes or hydrogen peroxide, flow cytometry; format: cell-based, human; conditions: for protection of lymphocytes from phagocyte-induced cell death (FIG. 1): overnight with autologous mononuclear phagocytes, catalase 200 U/ml, histamine, DPI 3 μM, p<0.001, n=4; for protection of lymphocytes from phagocyte- or hydrogen peroxide-induced (oxidant/ROS-induced) cell death / apoptosis: pretreatment, PJ34 250 nM, DPQ 3 μM, Z-VAD.fmk 100 μM, overnight incubation with phagocytes or H2O2
Experimental: Peripheral venous blood was obtained as freshly prepared leukopacks from healthy blood donors at the Blood Centre, Sahlgren's Hospital, Göteborg, Sweden, to study the activation characteristics of cytotoxic lymphocytes in the presence and absence of MO, and ROM inhibitors. The blood (65 ml) was mixed with 92.5 ml Iscove's medium, 35 ml 6% Dextran (Kabi Pharmacia, Stockholm, Sweden) and 7.5 ml acid citrate dextrose (ACD) (Baxter, Deerfield, Ill.). After incubation for 15 minutes at room temperature, the supernatant was carefully layered onto Ficoll-Hypaque (Lymphoprep, Myegaard, Norway). Mononuclear cells (MNC) were collected at the interface after centrifugation at 380 g for 15 minutes at room temperature, washed twice in PBS and resuspended in Iscove's medium supplemented with 10% human AB^+ serum. During all further separation of cells, the cell suspensions were kept in siliconized test tubes (Vacuette, Greiner, Stockholm).
The MNC were further separated into lymphocyte and monocyte (MO) populations using the counter-current centrifugal elutriation (CCE) technique originally described by Yasaka and co-workers (Yasaka, T. et al., J. Immunol., 127:1515) with modifications as described in Hansson, M., et al. (J. Immunol., 156: 42 (1996); hereby incorporated by reference). Briefly, the sedimentation rate of cells in a spinning rotor was balanced by a counter-directed flow through the chamber. By slowly increasing the flow rate, fractions of cells of well-defined sizes were collected. The MNC were resuspended in elutration buffer containing 0.5% BSA (ICN Biomedicals Inc., Aurora, Ohio) and 0.1% EDTA (VWR, Göteborg, Sweden) in buffered NaCl and fed into a Beckman J2-21 ultracentrifuge with a JE-6B rotor (Bechman Coulter Inc., Fullerton, Calif.) at 2100 rpm. A fraction with >90% MO was obtained at a flow rate of 19 ml/min. A lymphocyte fraction enriched for NK-cells (CD3^−/56^+ phenotype) and T-cells (CD3^+/56^−) was recovered at flow rates of 14-15 ml/min. This fraction contained <3% MO and consisted of CD3ε^−/56^+ NK-cells (45-50%), CD3ε^+/56^− T-cells (35-40%), CD3ε^−/56^− cells (5-10%), and CD3ε^+/56^+ cells (1-5%), as judged by flow cytometry. In some experiments, dynabeads (Dynal A/S, Oslo, Norway) coated with anti-CD56 were used to obtain purified lymphocyte preparations of T-cells, as described in detail by Hansson, M., et al., incorporated above.
Briefly, lymphocytes were incubated overnight with autologous mononuclear phagocytes in the presence or absence of catalase (200 U/ml), histamine ([…]) or DPI (3 μM).
Briefly, lymphocytes, pretreated with PJ34 (250 ηM), Z-VAD.fmk (100 μM) or medium, were subjected to mononuclear phagocytes at different Mo/Ly ratios (FIG. 5A) or to different concentrations of H2O2 (FIG. 5C). FIGS. 5A-5D illustrate that PJ34 protected lymphocytes from cell death induced by phagocytes ([…], ratio 1:1, p<0.05) and hydrogen peroxide (FIGS. 5C and 5D, 250 μM, p<0.001).

NK cells = conditions: H2-receptor antagonist or agonist; cited from earlier work
lymphocytes = experiment: Altered mitochondrial transmembrane potential (Mitochondrial Membrane Sensor Kit) and To-Pro-3 staining; format: cell-based, human; conditions: H2O2 250 μM or mononuclear phagocytes; PJ34 250 μM as printed
Experimental: A Mitochondrial Membrane Sensor Kit (BD Clontech) was used to identify cells with altered mitochondrial transmembrane potential according to the manufacturer's protocol.
Briefly, lymphocytes exposed to hydrogen peroxide (250 μM) were assayed for altered mitochondrial transmembrane potential and plasma membrane integrity at various time points. Depolarization of the Ψm is seen as an increase in green fluorescence (mitosensor monomers).

tumoricidal lymphocytes = experiment: Tumor-killing function of tumoricidal lymphocytes after phagocyte or hydrogen peroxide exposure; format: cell-based, human; conditions: PJ34 250 nM or DPQ 3 μM
Description: As detailed above, a significant part of the dysfunction of tumor-killing lymphocytes at the site of malignant tumor growth has been attributed to inhibitory signals from tumor-infiltrating or tumor-adjacent phagocytes. […] However, the molecular events underlying phagocyte-induced lymphocyte apoptosis are not fully understood. The role of two enzyme systems responsible for induction and execution of apoptosis, caspases and the poly(ADP-ribose) polymerase (PARP) were investigated. Human tumoricidal lymphocytes were incubated with autologous mononuclear phagocytes or with exogenously added hydrogen peroxide, and assayed for apoptotic features at various time points. […] It is therefore believed that PARP-dependent cell death may be critically involved in phagocyte-dependent, oxygen free radical-induced cell death.

caspase-3 = experiment: Caspase activation in lymphocytes, FLICA assay (FAM-VAD.fmk), flow cytometry; format: cell-based, human; conditions: overnight, phagocytes ratio 1:1 or H2O2 250 μM; PJ34 pretreatment printed as 250 μM and 250 ηM
Experimental: To study the role of caspases for ROS-induced cell death in anti-neoplastic cells, lymphocytes subjected to phagocytes or hydrogen peroxide were assayed for binding of a fluorochrome-conjugated caspase-3 inhibitor. Briefly, lymphocytes were incubated overnight with hydrogen peroxide (250 μM) or ROS-producing phagocytes (Ph, ratio 1:1) and then assayed for caspase activation using a Fluorochrome-Labeled Inhibitor of Caspases (FLICA) assay. Lymphocytes were incubated with a FITC-labeled caspase inhibitor (FAM-VAD.fmk, MP Biomedicals, Irvine, Calif.) for one hour according to the instructions provided by the manufacturer, and the percentage of cells with active caspase-3 was determined using flow cytometry. Caspase-3 activation was also monitored using the fluorogenic caspase-3 substrate PhiPhiLux (Oncolmmunin, Gaithersburg, Md.) according to the manufacturer's instructions. The FLICA reagent traverses the membranes of all cells and bind to the active site of activated caspase 3. Thus, only cells with activated caspases will retain the reagent and become fluorescent.
Briefly, after overnight incubation with mononuclear phagocytes (Ph, ratio 1:1) or hydrogen peroxide (250 μM) in the presence or absence of PJ34 (250 μM), lymphocytes were stained with a FITC-labeled caspase inhibitor (FAM-VAD.fmk) and assayed for caspase activation using flow cytometry. […]

Hepatitis C = experiment: Treatment of subjects suffering from Hepatitis C (Example 3); format: in vivo, human; conditions: PJ34 100 mg/day intravenously, three weeks
Experimental: Subjects suffering from Hepatitis C are identified. Individuals are administered 100 mg/day of a PARP-1 inhibitor, PJ34, intravenously for a period of three weeks.

[3] = vs subjects without PARP-1 inhibitor

## NCc1ccc2[nH]c3c4c(c5c(c3c2c1)C(=O)NC5=O)CCC4 [CEP-6800]
[1]
  viral infection or tumor mass: reduction in viral infection or tumor mass

## NC(=O)c1cccc(N)c1 [3-aminobenzamide]
AML
  clinical outcome in AML: reduction in cancer

## c1ccc([I+]c2ccccc2)cc1 [DPI, diphenyliodonium]
[2]
  protection of lymphocytes from phagocyte-induced cell death (FIG. 1): fully protected

## CN(C)CCCSC(=N)N [dimaprit]
NK cells
  effect of histamine on granulocyte mediated suppression of antibody dependent cytotoxicity of NK cells: mimicked

## CNC(=C[N+](=O)[O-])NCCSCc1ccc(CN(C)C)o1 [ranitidine]
NK cells
  effect of histamine on granulocyte mediated suppression of antibody dependent cytotoxicity of NK cells: blocked

## CN(C)CC(=O)Nc1ccc2[nH]c(=O)c3ccccc3c2c1 [PJ34]
[2]; PJ34 250 ηM, H2O2 250 μM, p<0.001
  protection from cell death induced by hydrogen peroxide (FIGS. 5C and 5D): protected
[2]; PJ34 250 ηM, Mo/Ly ratio 1:1, p<0.05
  protection from cell death induced by phagocytes: protected
[2]
  protection of lymphocytes from phagocyte- or hydrogen peroxide-induced (oxidant/ROS-induced) cell death / apoptosis: completely protected; also recorded: resisted the oxidative stress
lymphocytes
  protection from oxidant-induced alterations of Ψm (FIG. 4): protected
Tumoricidal lymphocytes
  restoration of tumor-killing function: restored
caspase-3
  caspase activation triggered by phagocytes and H2O2 (FIG. 3): reversed
Hepatitis C
  symptoms associated with Hepatitis C: reduction in symptoms associated with Hepatitis C
Hepatitis C; [3]
  ROM-mediated damage: reduction in ROM-mediated damage
  cytotoxic lymphocyte activation: increase in cytotoxic lymphocyte activation

## Q-VD.OPh
[2]
  protection of lymphocytes from phagocyte- or hydrogen peroxide-induced (oxidant/ROS-induced) cell death / apoptosis: failed to protect

## O=C1NCCc2c(OCCCCN3CCCCC3)cccc21 [DPQ]
[2]
  protection of lymphocytes from phagocyte- or hydrogen peroxide-induced (oxidant/ROS-induced) cell death / apoptosis: completely protected; also recorded: resisted the oxidative stress
Tumoricidal lymphocytes
  restoration of tumor-killing function: restored

B1: catalase: H2O2 scavenger (Boehringer-Mannheim) (protein, UniProt P00432 2-527, looked up)
Catalase: ADNRDPASDQMKHWKEQRAAQKPDVLTTGGGNPVGDKLNSLTVGPRGPLLVQDVVFTDEMAHFDRERIPERVVHAKGAGAFGYFEVTHDITRYSKAKVFEHIGKRTPIAVRFSTVAGESGSADTVRDPRGFAVKFYTEDGNWDLVGNNTPIFFIRDALLFPSFIHSQKRNPQTHLKDPDMVWDFWSLRPESLHQVSFLFSDRGIPDGHRHMNGYGSHTFKLVNANGEAVYCKFHYKTDQGIKNLSVEDAARLAHEDPDYGLRDLFNAIATGNYPSWTLYIQVMTFSEAEIFPFNPFDLTKVWPHGDYPLIPVGKLVLNRNPVNYFAEVEQLAFDPSNMPPGIEPSPDKMLQGRLFAYPDTHRHRLGPNYLQIPVNCPYRARVANYQRDGPMCMMDNQGGAPNYYPNSFSAPEHQPSALEHRTHFSGDVQRFNSANDDNVTQVRTFYLKVLNEEQRKRLCENIAGHLKDAQLFIQKKAVKNFSDVHPEYGSRIQALLDKYNEEKPKNAVHTYVQHGSHLSAREKANL
[2]
  protection of lymphocytes from phagocyte-induced cell death (FIG. 1): fully protected
